Measurements reported in US20210069108A1, “METHODS FOR PREVENTION AND TREATMENT OF PRESSURE ULCERS CAUSED BY ISCHEMIA USING CONTACT VASODILATORS” (priority 2018, published 2021).

System: pressure ulcer
Assay: topical composition applied to one pressure ulcer of a patient, another pressure ulcer left untreated
Format: in vivo
Details: patient diagnosed with pressure ulcers
Description: A patient is diagnosed with pressure ulcers. A topical composition comprising the calcium channel blocker nifedipine is applied to one pressure ulcer while another pressure ulcer is left untreated. […] A patient is diagnosed with pressure ulcers. A topical composition comprising the ACE inhibitor enalapril is applied to one pressure ulcer while another pressure ulcer is left untreated. […] A patient is diagnosed with pressure ulcers. A topical composition comprising the angiotensin receptor blocker losartan is applied to one pressure ulcer while another pressure ulcer is left untreated.

SMILES	healing of the treated pressure ulcer compared with the untreated pressure ulcer
CCOC(=O)[C@H](CCc1ccccc1)N[C@@H](C)C(=O)N1CCC[C@H]1C(=O)O [enalapril]	heal faster than the untreated pressure ulcer
CCCCc1nc(Cl)c(CO)n1Cc1ccc(-c2ccccc2-c2nn[nH]n2)cc1 [losartan]	heal faster than the untreated pressure ulcer
